In ChEMBL document CHEMBL1909046, “DrugMatrix in vitro pharmacology data” one finds IC50 and Ki data, which are given here for 21 compounds.

By IC50 is commonly meant the midpoint of a concentration-inhibition curve. As usually defined, the Ki is a measure of affinity in units of concentration, obtained from inhibition or displacement.

The target of test [1] is Tyrosine-protein kinase Fyn (Homo sapiens, UniProt P06241). The experiment in a line: biochemical. Type of test: cell-based, Insect cells. The settings on record: insect cells.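 Also: enzymatic inhibition of Fyn kinase activity measured with Poly(Glu:Tyr) as the phosphorylation substrate; in other assays of this panel Not Active means under 50% inhibition at 10 µM.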
In a further test the target is T1, Neutrophil elastase (Homo sapiens, UniProt P08246).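 Also: inhibition of neutrophil elastase enzyme activity, measured with a p-nitroanilide-linked peptide substrate; in other assays of this panel Not Active means under 50% inhibition at 10 µM.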
T1 sequence (P08246 whole entry): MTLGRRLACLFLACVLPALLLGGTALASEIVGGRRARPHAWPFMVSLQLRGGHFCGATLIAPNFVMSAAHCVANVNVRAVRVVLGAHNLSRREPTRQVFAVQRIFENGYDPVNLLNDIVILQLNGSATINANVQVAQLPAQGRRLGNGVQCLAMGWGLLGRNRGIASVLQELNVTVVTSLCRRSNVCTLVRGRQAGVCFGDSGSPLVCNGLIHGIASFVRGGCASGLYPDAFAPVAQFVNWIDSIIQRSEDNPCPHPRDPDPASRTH
In kind it is tissue-based.

Test [2] deals with 5-hydroxytryptamine receptor 6 (Homo sapiens, UniProt P50406). In kind it is cell membranes, HeLa, Membrane.
Test [3] in a line: DRUGMATRIX: Glutamate, AMPA radioligand binding (ligand: [3H] AMPA). In kind it is cell membranes, Rattus norvegicus, Wistar, Cerebral cortex, Membrane. As to conditions: Not Active = under 50% inhibition at 10 µM.
The nature of test [4]: DRUGMATRIX: Atrial Natriuretic Factor (ANF) radioligand binding (ligand: [125I] ANF (rat)). As to conditions: Not Active = under 50% inhibition at 10 µM. In kind it is cell membranes, Cavia porcellus, Dunkin-Hartley, Adrenal gland, Membrane.
For test [5], the target named is T2, Alpha-1B adrenergic receptor (Rattus norvegicus, UniProt P15823).
T2 sequence (P15823 whole entry): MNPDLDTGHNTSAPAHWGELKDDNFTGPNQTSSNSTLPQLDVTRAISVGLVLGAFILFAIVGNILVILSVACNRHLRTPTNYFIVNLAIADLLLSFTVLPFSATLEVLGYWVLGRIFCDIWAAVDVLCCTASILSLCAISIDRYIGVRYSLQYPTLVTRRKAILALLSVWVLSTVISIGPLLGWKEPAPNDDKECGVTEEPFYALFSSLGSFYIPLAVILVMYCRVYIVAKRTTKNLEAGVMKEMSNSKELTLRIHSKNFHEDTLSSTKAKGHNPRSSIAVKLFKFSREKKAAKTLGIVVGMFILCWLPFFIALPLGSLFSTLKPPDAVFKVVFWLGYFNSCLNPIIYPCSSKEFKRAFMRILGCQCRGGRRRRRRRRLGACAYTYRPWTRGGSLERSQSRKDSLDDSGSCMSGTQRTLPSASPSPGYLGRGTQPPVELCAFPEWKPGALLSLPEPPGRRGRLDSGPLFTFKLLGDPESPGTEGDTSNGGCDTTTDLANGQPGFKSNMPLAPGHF
In words: DRUGMATRIX: Alpha-1B adrenergic receptor radioligand binding (ligand: prazosin). In kind it is cell membranes, Wistar, Liver, Membrane. As to conditions: Not Active = under 50% inhibition at 10 µM.

Sequence of 5-hydroxytryptamine receptor 6 (P50406 whole entry): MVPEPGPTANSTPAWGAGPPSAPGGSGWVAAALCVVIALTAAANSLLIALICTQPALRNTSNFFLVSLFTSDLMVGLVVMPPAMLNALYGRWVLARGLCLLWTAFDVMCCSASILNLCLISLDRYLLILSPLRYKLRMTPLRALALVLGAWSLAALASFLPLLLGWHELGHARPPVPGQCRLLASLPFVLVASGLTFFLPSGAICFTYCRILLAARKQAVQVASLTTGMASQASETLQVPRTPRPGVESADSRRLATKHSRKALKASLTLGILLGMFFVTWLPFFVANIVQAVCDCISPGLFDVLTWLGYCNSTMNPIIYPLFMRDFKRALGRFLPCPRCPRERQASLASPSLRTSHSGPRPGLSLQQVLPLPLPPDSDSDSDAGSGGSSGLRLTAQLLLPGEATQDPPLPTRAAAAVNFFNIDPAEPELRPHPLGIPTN
Sequence of Tyrosine-protein kinase Fyn (P06241 whole entry): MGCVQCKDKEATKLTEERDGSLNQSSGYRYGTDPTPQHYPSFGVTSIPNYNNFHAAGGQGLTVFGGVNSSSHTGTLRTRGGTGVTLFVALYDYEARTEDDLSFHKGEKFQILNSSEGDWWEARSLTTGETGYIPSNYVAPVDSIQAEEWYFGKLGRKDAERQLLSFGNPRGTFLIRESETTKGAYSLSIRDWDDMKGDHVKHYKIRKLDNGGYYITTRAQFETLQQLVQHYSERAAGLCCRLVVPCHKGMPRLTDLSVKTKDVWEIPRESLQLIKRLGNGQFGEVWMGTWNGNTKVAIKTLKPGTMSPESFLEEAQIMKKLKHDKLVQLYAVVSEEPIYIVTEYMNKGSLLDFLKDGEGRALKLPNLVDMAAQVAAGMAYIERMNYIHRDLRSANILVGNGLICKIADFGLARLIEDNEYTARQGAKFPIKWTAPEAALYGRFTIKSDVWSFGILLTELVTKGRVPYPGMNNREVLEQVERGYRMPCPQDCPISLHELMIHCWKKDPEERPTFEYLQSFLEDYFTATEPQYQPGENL

As to `CCC(=O)O[C@]1(C(=O)CCl)[C@@H](C)C[C@H]2[C@@H]3CCC4=CC(=O)C=C[C@]4(C)[C@@]3(F)[C@@H](O)C[C@@]21C` [CLOBETASOL PROPIONATE], the IC50 result (in test [1]; against Neutrophil elastase; in test [2] (hela); in test [3]; in test [4]; in test [5]) was “Not Active” throughout. Moreover, the Ki entry in test [3] and in test [4] was “Not Active” throughout.

For the compound `C[C@@H](CO)NC(=O)[C@@H]1C=C2c3cccc4[nH]cc(c34)C[C@H]2N(C)C1` [ERGONOVINE], the IC50 result in test [1] was “Not Active”; against Neutrophil elastase, “Not Active”; in test [2] (read-out: IC50), 3.24 nM; in test [3], “Not Active”; in test [4], “Not Active”; in test [5] it was “Not Active”. Moreover, the Ki in test [2] (read-out: Ki) was 1.5 nM; in test [3], “Not Active”; in test [4] it was “Not Active”.

`Nc1ccc2c3c(cccc13)C(=O)NC2=O`: the IC50 entry (in test [1]; against Neutrophil elastase; in test [2] (hela); in test [3]; in test [4]; in test [5]) was “Not Active” throughout. In addition, the Ki result in test [3] and in test [4] was “Not Active” each time.

Take `CCN(CC)CCOCCC1=CCC2CC1C2(C)C` (configuration not stated) [MYRTECAINE]: the IC50 result (in test [1]; against Neutrophil elastase; in test [2] (hela); in test [3]; in test [4]; in test [5]) was “Not Active” throughout. The Ki entry in test [3] and in test [4] was “Not Active” throughout.

Regarding `CC(C)=CCC/C(C)=C/CO` [GERANIOL], the IC50 entry (in test [1]; against Neutrophil elastase; in test [2] (hela); in test [3]; in test [4]; in test [5]) was “Not Active” throughout. The Ki entry in test [3] and in test [4] was “Not Active” in each case.

As to `CCCOc1ccc(C(=O)OCCN(CC)CC)cc1N` [PROPARACAINE], the half-inhibitory concentration (IC50) result (in test [1]; on Neutrophil elastase; in test [2] (hela); in test [3]; in test [4]; in test [5]) was “Not Active” throughout. The Ki result in test [3] and in test [4] was “Not Active” throughout.

As for `O=C(O)c1cccnc1Nc1cccc(C(F)(F)F)c1` [NIFLUMIC ACID], the IC50 entry (in test [1]; on Neutrophil elastase; in test [2] (hela); in test [3]; in test [4]; in test [5]) was “Not Active” each time. The Ki result in test [3] and in test [4] was “Not Active” throughout.

With `CN1[C@@H]2CC[C@H]1C[C@@H](OC(=O)C(CO)c1ccccc1)C2` (some centres not stated) [ATROPINE], the IC50 entry (in test [1]; on Neutrophil elastase; in test [2] (hela); in test [3]; in test [4]; in test [5]) was “Not Active” throughout. Also, the Ki result in test [3] and in test [4] was “Not Active” in each case.

With `C#CC1(O)CC[C@H]2[C@@H]3CCC4=CC(=O)CC[C@@H]4[C@H]3CC[C@@]21CC` (some centres not stated) [NORGESTREL], the IC50 entry (in test [1]; at Neutrophil elastase; in test [2] (hela); in test [3]; in test [4]; in test [5]) was “Not Active” in each case. Besides, the Ki entry in test [3] and in test [4] was “Not Active” in each case.

With `CCCN(CCC)S(=O)(=O)c1ccc(C(=O)O)cc1` [PROBENECID], the IC50 entry (in test [1]; against Neutrophil elastase; in test [2] (hela); in test [3]; in test [4]; in test [5]) was “Not Active” in each case. The Ki entry in test [3] and in test [4] was “Not Active” each time.

`O=C1CN=C(c2ccccc2Cl)c2cc([N+](=O)[O-])ccc2N1` [CLONAZEPAM]: the IC50 result (in test [1]; against Neutrophil elastase; in test [2] (hela); in test [3]; in test [4]; in test [5]) was “Not Active” each time. The inhibition constant (Ki) result in test [3] and in test [4] was “Not Active” in each case.

Take `CC(C(=O)O)c1cccc(Oc2ccccc2)c1` (configuration not stated) [FENOPROFEN]: the IC50 entry (in test [1]; against Neutrophil elastase; in test [2] (hela); in test [3]; in test [4]; in test [5]) was “Not Active” each time. In addition, the Ki result in test [3] and in test [4] was “Not Active” each time.

For the compound GENTAMICIN, the IC50 result (in test [1]; against Neutrophil elastase; in test [2] (hela); in test [3]; in test [4]; in test [5]) was “Not Active” throughout. Besides, the Ki result (in test [1]; at Neutrophil elastase; in test [2] (hela); in test [3]; in test [4]; in test [5]) was “Not Active” throughout.

With `CC(=O)Oc1ccc(C(c2ccc(OC(C)=O)cc2)c2ccccn2)cc1` [BISACODYL], the IC50 result (in test [1]; at Neutrophil elastase; in test [2] (hela); in test [3]; in test [4]; in test [5]) was “Not Active” each time. The Ki entry in test [3] and in test [4] was “Not Active” throughout.

In the case of `C[C@@H]1O[C@@H](O[C@@H]2C=C3CC[C@@H]4[C@H](CC[C@]5(C)[C@@H](c6ccc(=O)oc6)CC[C@]45O)[C@@]3(C)CC2)[C@H](O)[C@H](O)[C@H]1O` [PROSCILLARIDIN], the IC50 result (in test [1]; on Neutrophil elastase; in test [2] (hela); in test [3]; in test [4]; in test [5]) was “Not Active” each time. The Ki entry in test [3] and in test [4] was “Not Active” throughout.

In the case of `C[C@@H]1C[C@H]2[C@@H]3CCC4=CC(=O)C=C[C@]4(C)[C@@]3(F)[C@@H](O)C[C@]2(C)[C@@]1(O)C(=O)CO` [DEXAMETHASONE], the IC50 result (in test [1]; against Neutrophil elastase; in test [2] (hela); in test [3]; in test [4]; in test [5]) was “Not Active” in each case. Moreover, the Ki entry in test [3] and in test [4] was “Not Active” in each case.

In the case of `C[n+]1ccc(-c2cc[n+](C)cc2)cc1.[Cl-].[Cl-]` [PARAQUAT DICHLORIDE], the IC50 entry (in test [1]; against Neutrophil elastase; in test [2] (hela); in test [3]; in test [4]; in test [5]) was “Not Active” each time. Moreover, the Ki entry in test [3] and in test [4] was “Not Active” each time.

With `Cc1cc2c(OCC(CNC(C)(C)C)OC(=O)c3ccccc3)cccc2[nH]1` (configuration not stated) [BOPINDOLOL], the IC50 result (in test [1]; at Neutrophil elastase; in test [2] (hela); in test [3]; in test [4]; in test [5]) was “Not Active” in each case. In addition, the Ki entry in test [3] and in test [4] was “Not Active” each time.

Regarding `Nc1ccn([C@@H]2O[C@H](CO)[C@@H](O)C2(F)F)c(=O)n1` [GEMCITABINE], the IC50 entry (in test [1]; against Neutrophil elastase; in test [2] (hela); in test [3]; in test [4]; in test [5]) was “Not Active” throughout. Moreover, the Ki result in test [3] and in test [4] was “Not Active” each time.

Turning to `Nc1ccn([C@@H]2O[C@H](CO)[C@@H](O)[C@@H]2O)c(=O)n1` [CYTARABINE], the IC50 entry (in test [1]; against Neutrophil elastase; in test [2] (hela); in test [3]; in test [4]; in test [5]) was “Not Active” each time. Also, the Ki result in test [3] and in test [4] was “Not Active” in each case.

For GADOPENTETATE DIMEGLUMINE, the IC50 result (in test [1]; on Neutrophil elastase; in test [2] (hela); in test [3]; in test [4]; in test [5]) was “Not Active” in each case. The Ki result (in test [1]; on Neutrophil elastase; in test [2] (hela); in test [3]; in test [4]; in test [5]) was “Not Active” throughout.
